Where a name gives a salt, the structure may show the parent alone.
Molecular target: T1, HiBiT tagged PARP14 (Homo sapiens, UniProt Q460N5)
T1 construct: engineered to contain a HiBiT tag on both alleles of the PARP14 gene; endogenous in cells; host or cells: Jurkat cells stably transfected with LgBiT (Promega), PARP14 locus edited by CRISPR/Cas9
Experiment: HiBiT assay for the degradation of PARP14 (HiBiT tagged PARP14 in LgBiT expressing Jurkat cells, 2 or 24 hours)
Type: cell-based
Details: Assay B (Example B): HiBiT tagged PARP14 degradation in LgBiT expressing Jurkat cells, read-out: DC50
Summary of the method: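 Jurkat cells stably expressing LgBiT with CRISPR knock-in of C-terminal HiBiT on both PARP14 alleles, 5,000 cells/well, treated with compound dose-response at 37 °C for 2 or 24 h. Live Cell Substrate luminescence normalised to 0.1% DMSO wells; DC50 from 4-parameter fit with floating top, bottom, Hill.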

T1 sequence (Q460N5 whole entry): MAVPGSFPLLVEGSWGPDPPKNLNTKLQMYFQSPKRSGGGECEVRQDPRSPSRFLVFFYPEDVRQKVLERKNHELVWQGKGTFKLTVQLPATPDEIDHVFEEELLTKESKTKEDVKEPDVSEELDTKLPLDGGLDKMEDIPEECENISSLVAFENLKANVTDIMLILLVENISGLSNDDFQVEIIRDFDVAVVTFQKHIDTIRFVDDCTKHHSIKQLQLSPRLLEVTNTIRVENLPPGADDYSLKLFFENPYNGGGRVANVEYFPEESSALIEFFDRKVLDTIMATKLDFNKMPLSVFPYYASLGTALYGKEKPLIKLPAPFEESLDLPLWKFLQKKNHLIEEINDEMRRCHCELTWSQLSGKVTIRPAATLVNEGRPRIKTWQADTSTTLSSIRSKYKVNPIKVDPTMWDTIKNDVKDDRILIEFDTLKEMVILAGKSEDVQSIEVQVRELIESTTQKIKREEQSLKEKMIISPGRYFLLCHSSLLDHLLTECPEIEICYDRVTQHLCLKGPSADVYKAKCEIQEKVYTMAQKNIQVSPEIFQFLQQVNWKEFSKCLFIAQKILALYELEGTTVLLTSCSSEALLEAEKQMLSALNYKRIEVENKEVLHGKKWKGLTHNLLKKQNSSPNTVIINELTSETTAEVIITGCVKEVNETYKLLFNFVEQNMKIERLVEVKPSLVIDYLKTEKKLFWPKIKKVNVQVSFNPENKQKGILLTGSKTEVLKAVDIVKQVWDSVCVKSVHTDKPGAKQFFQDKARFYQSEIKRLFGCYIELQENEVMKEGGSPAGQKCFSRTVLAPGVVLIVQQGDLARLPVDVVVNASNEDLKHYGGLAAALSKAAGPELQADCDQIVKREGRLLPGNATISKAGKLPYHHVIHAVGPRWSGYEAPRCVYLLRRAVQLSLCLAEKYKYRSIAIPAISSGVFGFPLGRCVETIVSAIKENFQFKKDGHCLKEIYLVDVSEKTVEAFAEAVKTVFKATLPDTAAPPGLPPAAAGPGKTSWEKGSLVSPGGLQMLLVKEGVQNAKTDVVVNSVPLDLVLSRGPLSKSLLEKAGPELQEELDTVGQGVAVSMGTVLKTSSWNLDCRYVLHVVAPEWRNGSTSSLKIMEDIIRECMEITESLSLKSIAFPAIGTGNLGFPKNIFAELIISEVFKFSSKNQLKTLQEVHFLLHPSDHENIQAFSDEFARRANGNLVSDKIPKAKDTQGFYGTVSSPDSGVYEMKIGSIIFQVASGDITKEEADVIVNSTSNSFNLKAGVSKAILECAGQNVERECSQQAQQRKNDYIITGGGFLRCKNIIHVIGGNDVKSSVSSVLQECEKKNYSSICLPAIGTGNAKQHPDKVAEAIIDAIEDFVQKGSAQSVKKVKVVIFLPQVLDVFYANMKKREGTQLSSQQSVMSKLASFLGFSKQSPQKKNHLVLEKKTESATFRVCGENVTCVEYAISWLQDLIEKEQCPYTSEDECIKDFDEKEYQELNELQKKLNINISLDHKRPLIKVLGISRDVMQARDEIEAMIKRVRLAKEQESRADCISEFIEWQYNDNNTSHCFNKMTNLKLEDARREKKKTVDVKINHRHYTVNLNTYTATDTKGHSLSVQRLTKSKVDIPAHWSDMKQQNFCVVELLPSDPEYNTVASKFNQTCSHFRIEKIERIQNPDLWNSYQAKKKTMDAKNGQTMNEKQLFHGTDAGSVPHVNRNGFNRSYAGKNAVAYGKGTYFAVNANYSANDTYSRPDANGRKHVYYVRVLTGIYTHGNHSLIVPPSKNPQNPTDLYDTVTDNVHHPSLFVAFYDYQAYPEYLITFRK

| Structure (SMILES) | DC50 [nM] |
| --- | --- |
| O=C1CCC(Nc2ccc(N3CCC(N4CC(N5CCC(COc6cc(F)c7c(=O)[nH]c(CCC8CCOCC8)nc7c6)CC5)C4)CC3)c(F)c2)C(=O)N1 (centres unmarked) [Example 146, 3-((3-fluoro-4-(4-(3-(4-(((5-fluoro-4-oxo-2-(2-(tetrahydro-2H-pyran-4-yl)ethyl)-3,4-dihydroquinazolin-7-yl)oxy)methyl)piperidin-1-yl)azetidin-1-yl)piperidin-1-yl)phenyl)amino)piperidine-2,6-dione formate] | < 30 |
| O=C1CCC(Nc2ccc(-c3ccc(CCN4CCC(COc5cc(F)c6c(=O)[nH]c(CSC7CCOCC7)nc6c5)CC4)cn3)cc2)C(=O)N1 (centres unmarked) [Example 132] | < 30 |
| O=C1CCC(Nc2ccc(N3CCC(N4CC(CC(=O)N5CCC(COc6cc(F)c7c(=O)[nH]c(CSC8CCOCC8)nc7c6)CC5)C4)CC3)c(F)c2)C(=O)N1 (centres unmarked) [Example 179, 3-((3-fluoro-4-(4-(3-(2-(4-(((5-fluoro-4-oxo-2-(((tetrahydro-2H-pyran-4-yl)thio)methyl)-3,4-dihydroquinazolin-7-yl)oxy)methyl)piperidin-1-yl)-2-oxoethyl)azetidin-1-yl)piperidin-1-yl)phenyl)amino)piperidine-2,6-dione] | < 30 |
| O=C1CCC(N2C(=O)c3ccc(N4CCC(N5CCC(COc6cc(F)c7c(=O)[nH]c(CSC8CCOCC8)nc7c6)CC5)CC4)cc3C2=O)C(=O)N1 (centres unmarked) [Example 190, 2-(2,6-dioxopiperidin-3-yl)-5-(4-(((5-fluoro-4-oxo-2-(((tetrahydro-2H-pyran-4-yl)thio)methyl)-3,4-dihydroquinazolin-7-yl)oxy)methyl)-[1,4′-bipiperidin]-1′-yl)isoindoline-1,3-dione] | < 30 |
| O=C1CCC(N2C(=O)c3cccc4c(N5CCN(CCN6CCC(COc7cc(F)c8c(=O)[nH]c(CSC9CCOCC9)nc8c7)CC6)CC5)ccc2c34)C(=O)N1 (centres unmarked) [Example 103, 3-(6-(4-(2-(4-(((5-fluoro-4-oxo-2-(((tetrahydro-2H-pyran-4-yl)thio)methyl)-3,4-dihydroquinazolin-7-yl)oxy)methyl)piperidin-1-yl)ethyl)piperazin-1-yl)-2-oxobenzo[cd]indol-1(2H)-yl)piperidine-2,6-dione] | < 30 |
| O=C1CCC(Nc2ccc(N3CCN(CCN4CCC(COc5cc(F)c6c(=O)[nH]c(CSC7CCOCC7)nc6c5)CC4)CC3)cc2F)C(=O)N1 (centres unmarked) [Example 97, 3-((2-fluoro-4-(4-(2-(4-(((5-fluoro-4-oxo-2-(((tetrahydro-2H-pyran-4-yl)thio)methyl)-3,4-dihydroquinazolin-7-yl)oxy)methyl)piperidin-1-yl)ethyl)piperazin-1-yl)phenyl)amino)piperidine-2,6-dione] | < 30 |
| O=C1CCC(Nc2ccc(N3CCC(N4CCC(COc5cc(F)c6c(=O)[nH]c(CC7CC7)nc6c5)CC4)CC3)c(F)c2)C(=O)N1 (centres unmarked) [Example 219, 3-((4-(4-(((2-(cyclopropylmethyl)-5-fluoro-4-oxo-3,4-dihydroquinazolin-7-yl)oxy)methyl)-[1,4′-bipiperidin]-1′-yl)-3-fluorophenyl)amino)piperidine-2,6-dione formate] | < 30 |
| O=C1CCC(N2C(=O)c3cccc4c(N5CCC(N6CC(N7CCC(COc8cc(F)c9c(=O)[nH]c(CSC%10CCOCC%10)nc9c8)CC7)C6)CC5)ccc2c34)C(=O)N1 (centres unmarked) [Example 169, 3-(6-(4-(3-(4-(((5-fluoro-4-oxo-2-(((tetrahydro-2H-pyran-4-yl)thio)methyl)-3,4-dihydroquinazolin-7-yl)oxy)methyl)piperidin-1-yl)azetidin-1-yl)piperidin-1-yl)-2-oxobenzo[cd]indol-1(2H)-yl)piperidine-2,6-dione] | < 30 |
| O=C1CCC(Nc2ccc(N3CCC(N4CC(N5CCC(CCOc6cc(F)c7c(=O)[nH]c(CSC8CCOCC8)nc7c6)CC5)C4)CC3)c(F)c2)C(=O)N1 (centres unmarked) [Example 235, 3-((3-fluoro-4-(4-(3-(4-(2-((5-fluoro-4-oxo-2-(((tetrahydro-2H-pyran-4-yl)thio)methyl)-3,4-dihydroquinazolin-7-yl)oxy)ethyl)piperidin-1-yl)azetidin-1-yl)piperidin-1-yl)phenyl)amino)piperidine-2,6-dione] | < 30 |
| O=C1CCC(Nc2ccc(N3CCN(CCN4CCC(COc5cc(F)c6c(=O)[nH]c(CSC7CCOCC7)nc6c5)CC4)CC3)c(F)c2)C(=O)N1 (single isomer, unassigned) [Example 64a, 3-((3-fluoro-4-(4-(2-(4-(((5-fluoro-4-oxo-2-(((tetrahydro-2H-pyran-4-yl)thio)methyl)-3,4-dihydroquinazolin-7-yl)oxy)methyl)piperidin-1-yl)ethyl)piperazin-1-yl)phenyl)amino)piperidine-2,6-dione] | < 30 |
| Cn1nc(N2CCC(=O)NC2=O)c2ccc(C3CCN(C4CCN(CCOc5cc(F)c6c(=O)[nH]c(CSC7CCOCC7)nc6c5)CC4)CC3)cc21 [Example 187, 1-(6-(1′-(2-((5-fluoro-4-oxo-2-(((tetrahydro-2H-pyran-4-yl)thio)methyl)-3,4-dihydroquinazolin-7-yl)oxy)ethyl)-[1,4′-bipiperidin]-4-yl)-1-methyl-1H-indazol-3-yl)dihydropyrimidine-2,4(1H,3H)-dione diformate] | < 30 |
| Cn1nc(N2CCC(=O)NC2=O)c2cc(F)c(N3CCC(CN4CCC(COc5cc(F)c6c(=O)[nH]c(COC7CCOCC7)nc6c5)CC4)CC3)cc21 [Example 183, 1-(5-fluoro-6-(4-((4-(((5-fluoro-4-oxo-2-(((tetrahydro-2H-pyran-4-yl)oxy)methyl)-3,4-dihydroquinazolin-7-yl)oxy)methyl)piperidin-1-yl)methyl)piperidin-1-yl)-1-methyl-1H-indazol-3-yl)dihydropyrimidine-2,4(1H,3H)-dione] | < 30 |
| Cn1nc(C2CCC(=O)NC2=O)c2ccc(N3CCN(CCN4CCC(COc5cc(F)c6c(=O)[nH]c(CSC7CCOCC7)nc6c5)CC4)CC3)cc21 (centres unmarked) [Example 102, 3-(6-(4-(2-(4-(((5-Fluoro-4-oxo-2-(((tetrahydro-2H-pyran-4-yl)thio)methyl)-3,4-dihydroquinazolin-7-yl)oxy)methyl)piperidin-1-yl)ethyl)piperazin-1-yl)-1-methyl-1H-indazol-3-yl)piperidine-2,6-dione] | < 30 |
| Cn1nc(N2CCC(=O)NC2=O)c2cc(F)c(N3CC(N4CCC(COc5cc(F)c6c(=O)[nH]c(CSC7CCOCC7)nc6c5)CC4)C3)cc21 [Example 185, 1-(5-fluoro-6-(3-(4-(((5-fluoro-4-oxo-2-(((tetrahydro-2H-pyran-4-yl)thio)methyl)-3,4-dihydroquinazolin-7-yl)oxy)methyl)piperidin-1-yl)azetidin-1-yl)-1-methyl-1H-indazol-3-yl)dihydropyrimidine-2,4(1H,3H)-dione] | < 30 |
| Cn1nc(N2CCC(=O)NC2=O)c2ccc(C3CCN(CCOc4cc(F)c5c(=O)[nH]c(CSC6CCOCC6)nc5c4)CC3)cc21 [Example 186, 1-(6-(1-(2-((5-fluoro-4-oxo-2-(((tetrahydro-2H-pyran-4-yl)thio)methyl)-3,4-dihydroquinazolin-7-yl)oxy)ethyl)piperidin-4-yl)-1-methyl-1H-indazol-3-yl)dihydropyrimidine-2,4(1H,3H)-dione] | < 30 |
| O=C1CCC(Nc2ccc(N3CCC(N4CC(N5CCC(COc6cc(F)c7c(=O)[nH]c(CSC8CCCCC8)nc7c6)CC5)C4)CC3)c(F)c2)C(=O)N1 (centres unmarked) [Example 237, 3-({4-[4-(3-{4-[({2-[(cyclohexylsulfanyl)methyl]-5-fluoro-4-oxo-3H-quinazolin-7-yl}oxy)methyl]piperidin-1-yl}azetidin-1-yl)piperidin-1-yl]-3-fluorophenyl}amino)piperidine-2,6-dione formate] | < 30 |
| O=C1CCC(Nc2ccc(N3CCC(C(=O)N4CCC(N5CCC(COc6cc(F)c7c(=O)[nH]c(CSC8CCOCC8)nc7c6)CC5)C4)CC3)c(F)c2)C(=O)N1 (centres unmarked) [Example 176, 3-((3-fluoro-4-(4-(3-(4-(((5-fluoro-4-oxo-2-(((tetrahydro-2H-pyran-4-yl)thio)methyl)-3,4-dihydroquinazolin-7-yl)oxy)methyl)piperidin-1-yl)pyrrolidine-1-carbonyl)piperidin-1-yl)phenyl)amino)piperidine-2,6-dione] | < 30 |
| Cn1nc(N2CCC(=O)NC2=O)c2cc(F)c(N3CCC(N4CCC(COc5cc(F)c6c(=O)[nH]c(CSC7CCOCC7)nc6c5)CC4)CC3)cc21 [Example 163, 1-(5-fluoro-6-(4-(((5-fluoro-4-oxo-2-(((tetrahydro-2H-pyran-4-yl)thio)methyl)-3,4-dihydroquinazolin-7-yl)oxy)methyl)-[1,4′-bipiperidin]-1′-yl)-1-methyl-1H-indazol-3-yl)dihydropyrimidine-2,4(1H,3H)-dione] | < 30 |
| Cn1c(=O)n(C2CCC(=O)NC2=O)c2ccc(N3CCN(CCN4CCC(COc5cc(F)c6c(=O)[nH]c(CSC7CCOCC7)nc6c5)CC4)CC3)cc21 (centres unmarked) [Example 91, 3-(5-(4-(2-(4-(((5-fluoro-4-oxo-2-(((tetrahydro-2H-pyran-4-yl)thio)methyl)-3,4-dihydroquinazolin-7-yl)oxy)methyl)piperidin-1-yl)ethyl)piperazin-1-yl)-3-methyl-2-oxo-2,3-dihydro-1H-benzo[d]imidazol-1-yl)piperidine-2,6-dione] | < 30 |
| O=C1CCC(Nc2ccc(N3CCN(CCN4CCC(COc5cc(F)c6c(=O)[nH]c(COC7CCOCC7)nc6c5)CC4)CC3)cc2F)C(=O)N1 (centres unmarked) [Example 192, 3-((2-fluoro-4-(4-(2-(4-(((5-fluoro-4-oxo-2-(((tetrahydro-2H-pyran-4-yl)oxy)methyl)-3,4-dihydroquinazolin-7-yl)oxy)methyl)piperidin-1-yl)ethyl)piperazin-1-yl)phenyl)amino)piperidine-2,6-dione diformate] | < 30 |

From patent US20240101540A1, “TARGETED PROTEIN DEGRADATION OF PARP14 FOR USE IN THERAPY” (Ribon Therapeutics, Inc., priority 2022, published 2024)
